Data reported in article PMC3265452 (PLoS Neglected Tropical Diseases, 2012).
Counter-ions that a name gives are not always drawn.

Biological target: AaDOP2 (Aedes aegypti, UniProt H6D5H2)
Assay: AaDOP2 antagonist screen of the LOPAC1280 library (HEK-CRELuc-Aadop2 cells, luminescence)
Format: cell-based
Conditions: not given

AaDOP2, sequence (H6D5H2 1-476): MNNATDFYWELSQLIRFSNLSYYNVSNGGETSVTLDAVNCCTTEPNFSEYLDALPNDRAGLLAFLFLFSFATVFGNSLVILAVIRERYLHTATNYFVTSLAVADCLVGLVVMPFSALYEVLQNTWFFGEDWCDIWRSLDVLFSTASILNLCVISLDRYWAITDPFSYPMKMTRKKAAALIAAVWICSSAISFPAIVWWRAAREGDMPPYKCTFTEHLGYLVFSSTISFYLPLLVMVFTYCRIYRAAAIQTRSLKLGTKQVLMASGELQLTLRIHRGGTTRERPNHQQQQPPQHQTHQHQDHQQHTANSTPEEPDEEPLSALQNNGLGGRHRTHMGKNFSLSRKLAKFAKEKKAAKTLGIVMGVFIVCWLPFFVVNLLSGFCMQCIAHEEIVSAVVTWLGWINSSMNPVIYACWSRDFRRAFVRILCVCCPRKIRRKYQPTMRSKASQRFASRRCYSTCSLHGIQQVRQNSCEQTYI

Row | Compound | Compound effect (percent receptor signaling in presence of test compound, relative lux units relative to the SCH23390 control)
1 | CN1C(=O)CCS(=O)(=O)C1c1ccc(Cl)cc1 (centres unmarked) [Compound 343, Chlormezanone] | 93
2 | N#CC(C#N)=Cc1cc(O)c(O)c(O)c1 [Compound 1199, Tyrphostin 25] | 113
3 | Cl.NC1(C(=O)O)CCCCC1 [Compound 132, 1-Amino-1-cyclohexanecarboxylic acid hydrochloride] | 110
4 | R(-)-Me5 [Compound 734] | 93
5 | Cc1c(C)c2c(c(C)c1O)CCC(C)(CN1CCN(c3cc(N4CCCC4)nc(N4CCCC4)n3)CC1)O2.Cl.Cl (centres unmarked) [Compound 1235, U-83836 dihydrochloride] | 103
6 | NCCS(=O)O [Compound 578, Hypotaurine] | 89
7 | NC(=O)CN1CC(O)CC1=O (centres unmarked) [Compound 902, Oxiracetam] | 101
8 | CCN(CC)CCCC(C)Nc1ccnc2cc(Cl)ccc12 (centres unmarked) [Compound 286, Chloroquine diphosphate] | 83
9 | CCCNC[C@H](O)COc1ccccc1C(=O)CCc1ccccc1.Cl [Compound 999, (S)-(-)-propafenone hydrochloride] | 77
10 | CCCCCCCCCCCCCCCCCC(=O)NCC(COP(=O)([O-])OCC[N+](C)(C)C)OCC (racemic) [Compound 489, rac-2-Ethoxy-3-octadecanamido-1-propylphosphocholine] | 65
11 | CCCN(CC1CC1)c1nc(C)nc(Nc2c(Cl)cc(Cl)cc2Cl)c1Cl [Compound 498, NBI 27914] | 90
12 | Cc1cc(N)c2ccccc2[n+]1CCCCCCCCCC[n+]1c(C)cc(N)c2ccccc21 [Compound 378, Dequalinium dichloride] | 73
13 | O=[N+]([O-])c1ccc(O[C@@H]2O[C@H](CO)[C@@H](O)[C@H](O)[C@H]2F)c([N+](=O)[O-])c1 [Compound 366, 2,4-Dinitrophenyl 2-fluoro-2-deoxy-beta-D-glucopyranoside] | 75
14 | CC(N)c1cccc(Cl)c1Cl.Cl (racemic) [Compound 448, (±)-2,3-Dichloro-alpha-methylbenzylamine hydrochloride] | 84
15 | COc1ccc(Cl)cc1C(=O)NCCc1ccc(S(=O)(=O)NC(=O)NC2CCCCC2)cc1 [Compound 546, Glibenclamide] | 118
16 | COc1ccccc1N1CCN(CCCNc2cc(=O)n(C)c(=O)n2C)CC1 [Compound 1239, Urapidil hydrochloride] | 94

Same assay, conditions: 10 µM compound, 300 nM dopamine, 2 hr; hit = compound effect <20

Row | Compound | Compound effect (percent receptor signaling in presence of test compound, relative lux units relative to the SCH23390 control)
17 | CCCN1CCC[C@@H]2Cc3nc(N)ncc3C[C@H]21 [Compound 1038, Quinelorane dihydrochloride] | 99%
18 | R(-)-2,10,11-Trihydroxy-N-propylnoraporphine hydrobromide [Compound 438] | 88%
19 | Cl.O[Si](CCCN1CCCCC1)(c1ccc(F)cc1)C1CCCCC1 (centres unmarked) [Compound 621, Hexahydro-sila-difenidol hydrochloride, p-fluoro analog] | 73%
20 | N[C@@]1(C(=O)O)CC[C@@H](C(=O)O)C1 (racemic) [Compound 130, trans-(±)-ACPD] | 116%
